Where “and” joins values, the source holds several entries; their conditions need not be identical. Equal values may be shown once. Entries after “also recorded” stand apart in the source; their conditions may differ. Where no end group is shown, it is not given here.
Experiments:
Format in all cases: cell-based, human
[1] = system: T cell clones; assay: IFN-γ ELISPOT of T cell clones with peptides and autologous EBV-LCL; settings: for ELISPOT response (spot forming units) of T cell clones: 10 μM; for ELISPOT response of T cell clones: subject 5 clones #1-5 and #17-5; for ELISPOT response of 27G6 clone: subject 1, E7-specific clone; for T cell clones positive in screening ELISPOT: 94 out of 400 clones screened; for retest of screen-positive T cell clones (ELISPOT): 1000 T cell clone cells in duplicate; for ELISPOT response (spot-forming units) of T cell clones: subject 15 clones specific for E6 26-40, peptides 10 μM
Description: A method described previously was used with some modifications (Larsson, M. et al., 2002). Briefly, a 96-well plate (Millititer, Millipore, Bedford, Mass.) was coated with 5μg/ml primary anti-γ-IFN monoclonal antibody (Mabtech, Stockholm, Sweden) and stored at 4° C. overnight. The plate was then washed 4 times with phosphate buffered saline (PBS) and blocked using RPMI 1640 plus 5% pooled human serum for 1 h at 37° C.
To examine the pattern of CD8 T cell epitopes (FIG. 1), 1×10^5cells of a CD8 T cell line were plated in each well. Overlapping 15-mer peptides (overlapping by the 10 central amino acids) were pooled to 10 groups (each group containing 3 peptides) and tested in duplicate (10 μM for each peptide) along with no peptide control. For screening T cell clones, 50 μl of culture media containing the T cell clones was added with 1×10^5 autologous Epstein-Barr virus-transformed B lymphoblastoid cell line (EBV-LCL) cells (data not shown). With the remaining experiments using T cell clones, 1×10^3 T cell clones were plated along with 1×10^5EBV-LCL cells to reduce the number of T cell clones necessary for analysis. All peptides were used at a concentration of 10 μM.
Autologous EBV-LCL cells were incubated with E6-vac, E7-vac or WR at the multiplicity of infection of 10 for 1 h at 37° C. prior to being plated (FIG. 2B). Phytohemagglutinin (PHA) at 10 μg/ml was added as positive control. After a 24 h incubation at 37° C., the plate was washed 4 times with PS plus 0.05% Tween-20. A total of 50 μl of secondary antibody (1 μg/ml biotin-conjugated anti-IFNγ monoclonal antibody; Mabtech) was added and the plate was incubated for 2 h at 37° C. The plate was then washed 4 times with PBS plus 0.1% Tween-20. Avidin-bound biotinylated horseradish peroxidase H (Vectastain Elite kit; Vector laboratories, Inc., Burligame, Calif.) was added […] and air-dried overnight. Spot forming units were counted using an automated ELISPOT analyzer (Cell Technology, Inc., Jessup, Md.) and were normalized to number of spot forming units per 1×10^6 cells for CD8 T cell lines. Response was considered positive when the number of spot forming units in wells with peptide pools was at least double that seen in the no peptide control wells.
To isolate T cell clones recognizing the E6 antigenic epitope from subject 15, their CD8 T cell lines were stimulated as described above for two additional 7-day cycles, so the frequency of targeted T cell clones would be above the threshold of selection (≧0.1%). The peptide-specific T cells were positively selected using the IFN-γ secretion assay enrichment kit, according to the manufacturer's instructions (Miltenyi Biotec), after stimulating cells with 10 μM each of peptides contained in the E6 16-40 (SEQ ID NO. 36) pool. Selected cells were plated at a concentration of 0.5 cells per well in the presence of a 0.5× feeder cell mixture (Yssel's media containing 1% pooled human serum, penicillin G 100 units/ml, streptomycin 100 μg/ml, 5×10^5/ml irradiated allogenic PBMC, 5×10^4/ml irradiated JY cells, 0.1 μg/ml PHA, with/without 10 u/ml rIL-4). Control wells for growth contained 1 to 1000 cells per well. On day 5, 100 μl of Yssel's media containing 20 U/ml of rIL-2 was added to each well. Growing microcultures were transferred to 24-well plates containing 1 ml of 1× feeder cell mixture per well (Yssel's media containing 1% pooled human serum, penicillin G 100 units/ml, streptomycin 100 μg/ml, 1×10^6/ml irradiated allogenic PBMC, 1×10^5/ml irradiated JY cells and 0.1 μg/ml PHA).
All peptides were used at a concentration of […] and 1×10^3 T cell clones along with 1×10^5 autologous LCL cells were plated to each well.

[2] = system: T cell clones; assay: ELISPOT with E6-vac/E7-vac-infected autologous EBV-LCL (naturally processed epitope)
[3] = system: CD8 T cell line; assay: IFN-γ ELISPOT of CD8 T cell lines with pooled overlapping 15-mer peptides; parameters: key to CD8 T cell response to HPV 16 E6 region: The strongest T cell response for a given subject is indicated with upper case X; x: subdominant response is indicated with lower case X; settings: pooled 15-mer peptides, 10 μM each
[4] = subject 20 clones #60-20, #127-20, #138-20
[5] = subject 20, E6 16-40 region (eight clones), E6 31-55 region (four clones)

## AFRDLCIVY (Human Papilloma Virus 16; CHAIN residues 53-61 of the E6 protein) [E6 53-61]
[1]; subject 1 clones 2, 9 and 69
  ELISPOT response of E6-specific T cell clones: response

## DFAFRDLCIVY (Human Papilloma Virus 16; CHAIN residues 51-61 of the E6 protein) [E6 51-61]
[1]; subject 7 subdominant epitope, clones #15-7, #41-7, #54-7, #86-7
  ELISPOT response (spot forming units) of T cell clones: more number of spot forming units

## E6 16-40: pool of three 15-mers: E6 16-30, E6 21-35, E6 26-40 (chain 1 PRKLPQLCTELQTTI; chain 2 QLCTELETTIHDIIL; chain 3 LQTTIHDIILECVYC; cysteine pairing not given here; also: pool of three 15-mers)
[2]; subject 7, MOI 5
  T cell clones positive with E6-vac infected autologous LCL: 20 of 20 and all twenty
[2]; subject 15, MOI 10
  T cell clones positive with E6-vac infected autologous LCL: 10 of 14 and 10 of the 14
[2]; subject 20, MOI 5
  T cell clones positive with E6-vac infected autologous LCL: all eight
[2]; subject 20, MOI 5, listed as SEQ ID NO. 36
  T cell clones positive with E6-vac infected autologous LCL: eight of eight
[3]; Subject 5
  CD8 T cell response to HPV 16 E6 region: X
[3]; Subject 7
  CD8 T cell response to HPV 16 E6 region: X
[3]; Subject 15
  CD8 T cell response to HPV 16 E6 region: X
[3]; Subject 20
  CD8 T cell response to HPV 16 E6 region: X

## E6 30-38: HPV16 E6 9-mer peptide, residues 30-38 (IHDIILECV; Human Papilloma Virus 16; CHAIN residues 30-38 of the E6 protein)
[1]; subject 7 dominant epitope, clones #12-7, #40-7, #59-7
  ELISPOT response (spot forming units) of T cell clones: positive
[1]; [4]
  ELISPOT response (spot forming units) of T cell clones: positive; also recorded: similar; also recorded: large numbers of spot forming units

## E6 31-37: HPV16 E6 7-mer, residues 31-37 (HDIILEC; Human Papilloma Virus 16; CHAIN residues 31-37 of the E6 protein)
[1]; [4]
  ELISPOT response (spot forming units) of T cell clones: Less number of spot forming units

## E6 31-39: HPV16 E6 9-mer peptide, residues 31-39 (HDIILECVY; Human Papilloma Virus 16; CHAIN residues 31-39 of the E6 protein)
[1]; [4]
  ELISPOT response (spot forming units) of T cell clones: positive; also recorded: similar; also recorded: large numbers of spot forming units

## E6 32-38: HPV16 E6 7-mer, residues 32-38 (DIILECV; Human Papilloma Virus 16; CHAIN residues 32-38 of the E6 protein)
[1]; [4]
  ELISPOT response (spot forming units) of T cell clones: Less number of spot forming units

## E6 61-85: pool of three overlapping 15-mers covering HPV16 E6 61-85 (YRDGNPYAVCDKCLKFYSKISEYRH; cysteine pairing not given here; also: pool of overlapping 15-mers)
[3]; Subject 18
  CD8 T cell response to HPV 16 E6 region: x
[3]; Subject 23
  CD8 T cell response to HPV 16 E6 region: x

## E6 91-115: pool of three overlapping 15-mers covering HPV16 E6 91-115 (YGTTLEQQYNKPLCDLLIRCINCQK; cysteine pairing not given here; also: pool of overlapping 15-mers)
[3]; Subject 18
  CD8 T cell response to HPV 16 E6 region: X

## E6 136-158: pool of overlapping 15-mers covering HPV16 E6 136-158 (RGRWTGRCMSCCRSSRYRRETQK; cysteine pairing not given here; also: pool of overlapping 15-mers)
[3]; Subject 5
  CD8 T cell response to HPV 16 E6 region: x

## E6 141-155: HPV16 E6 15-mer peptide, residues 141-155 (GRCMSCCRSSRTRRE; Human Papilloma Virus 16; CHAIN residues 141-155 of the E6 protein)
[2]; subject 5 clones #1-5 and #17-5
  recognition of E6-vac infected autologous LCL / natural processing: not with E6-vac infected autologous LCL; also recorded: not the E6-vac infected ones
[1]; subject 5
  screen-positive T cell clones positive for the 15-mer peptide on retest: Two
[1]
  ELISPOT response of T cell clones: confirmed

## E6 142-152: HPV16 E6 11-mer, residues 142-152 (RCMSCCRSSRT; Human Papilloma Virus 16; CHAIN residues 142-152 of the E6 protein)
[1]
  ELISPOT response of T cell clones: None of the 9-mers and the 11-mers was positive

## E6 143-153: HPV16 E6 11-mer, residues 143-153 (CMSCCRSSRTR; Human Papilloma Virus 16; CHAIN residues 143-153 of the E6 protein)
[1]
  ELISPOT response of T cell clones: None of the 9-mers and the 11-mers was positive

## E6 144-154: HPV16 E6 11-mer, residues 144-154 (MSCCRSSRTRR; Human Papilloma Virus 16; CHAIN residues 144-154 of the E6 protein)
[1]
  ELISPOT response of T cell clones: None of the 9-mers and the 11-mers was positive

## EDLLMGTL (Human Papilloma Virus 16; CHAIN residues 80-87 of the E7 protein) [E7 80-87]
[1]
  ELISPOT response of 27G6 clone: smaller response; also recorded: partial IFN-γ secretion

## HDIILECVYCKQQLL (Human Papilloma Virus 16; CHAIN residues 31-45 of the E6 protein) [E6 31-45]
[1]; [5]
  screen-positive T cell clones positive for the 15-mer peptide on retest: four

## IHDIILEC (Human Papilloma Virus 16; CHAIN residues 30-37 of the E6 protein) [E6 30-37]
[1]; [4]
  ELISPOT response (spot forming units) of T cell clones: Less number of spot forming units

## LEDLLMGT (Human Papilloma Virus 16; CHAIN residues 79-86 of the E7 protein) [E7 79-86]
[1]
  ELISPOT response of 27G6 clone: smaller response; also recorded: did not show any activity above the background

## LQTTIHDIILECVYC (Human Papilloma Virus 16; CHAIN residues 26-40 of the E6 protein) [E6 26-40]
[1]; subject 5
  screen-positive T cell clones positive for the 15-mer peptide on retest: none of 5
[1]; subject 7, of 10 (E6 16-40 region) or six (E6 46-70 region) clones
  screen-positive T cell clones positive for the 15-mer peptide on retest: 10 clones
[1]; subject 15
  T cell clones positive in screening ELISPOT: Thirteen
  retest of screen-positive T cell clones (ELISPOT): confirming their specificity
[1]; subject 15, listed as E6 24-60
  retest of screen-positive T cell clones (ELISPOT): confirmed
[1]; subject 15, of 14 clones positive for E6 16-40 region
  screen-positive T cell clones positive for the 15-mer peptide on retest: 10 clones
[1]
  ELISPOT response (spot-forming units) of T cell clones: similar
[1]; [5]
  screen-positive T cell clones positive for the 15-mer peptide on retest: eight

## PRKLPQLCTELQTTI (Human Papilloma Virus 16; CHAIN residues 16-30 of the E6 protein) [E6 16-30]
[1]; subject 15
  T cell clones positive in screening ELISPOT: one
  retest of screen-positive T cell clones (ELISPOT): negative; also recorded: false positives

## QLCTELQTTIHDIIL (QLCTELETTIHDIIL; Human Papilloma Virus 16; CHAIN residues 21-35 of the E6 protein) [E6 21-35]
[1]; subject 15
  T cell clones positive in screening ELISPOT: three
  retest of screen-positive T cell clones (ELISPOT): negative; also recorded: false positives

## TTIHDIILEC (Human Papilloma Virus 16; CHAIN residues 28-37 of the E6 protein) [E6 28-37]
[1]
  ELISPOT response (spot-forming units) of T cell clones: similar

Reference: patent US20060182763A1, “CD8 T cell epitopes in HPV 16 E6 and E7 proteins and uses thereof” (priority 2005, published 2006)
